PubChem BioAssay AID1918991 (Molecular Pharmacology Branch, DTP, NCI, 2023)

Test system: 186277-243-T-J2-PDC complex spheroid growth
Assay: Anticancer human tumor 186277-243-T-J2-PDC patient-derived colon adenocarcinoma cell line growth inhibition [AhR]
Conditions: for IC50: curve of first compound; for viability, T/C: stronger effect = lower value
Text: Multicellular complex tumor spheroid response to aryl hydrocarbon receptor antagonists in combination with a variety of drugs and investigational agents in selected tumor cell lines
The current study was undertaken to assess response to aryl hydrocarbon receptor antagonists in combination with standard-of-care drugs and investigational agents in solid tumor complex spheroid models. Complex spheroids include a stromal component modeled by human endothelial cells (HUVEC) and fibroblasts modeled by human mesenchymal stem cells (MSCs). The concentration ranges selected for each drug and investigational agent were based upon clinically achievable concentrations if the clinical Cmax of the agent was known.
Compounds. The drugs and investigational agents: BAY 2416964 (NSC825713), GNF351 (NSC835774), CH-223191 (NSC835775), CPI-455 (NSC825282), aza-TdCyd (NSC777586), decitabine (NSC127716), belinostat (NSC758774), entinostat (NSC756642), pevonedistat (NSC761192), tazemetostat (NSC777109), talazoparib (NSC765396), olaparib (NSC753686), selinexor (NSC780203), nedisertib (M3814, NSC802822), bortezomib (NSC756655), venetoclax (NSC766270), doxorubicin (NSC123127), elimusertib (BAY189344, NSC800525), ceralasertib (AZD6738, NSC777638), TAK-243 (NSC785004), alisertib (NSC759677), etoposide (NSC141540), topotecan (NSC609699), eribulin (NSC707389), gemcitabine (NSC613327), carboplatin (NSC241240), cisplatin (NSC119875), and SN-38 (NSC673596) were obtained from the National Cancer Institute (NCI) Developmental Therapeutics Program Chemical Repository (32). The FDA-approved anticancer drug set is available from the Developmental Therapeutics Program at https://dtp.cancer.gov/organization/dscb/obtaining/available plates.htm. […] The stock solutions were prepared in dimethyl sulfoxide (DMSO, Sigma-Aldrich, St. Louis, MO, cat. D2650), except for the platinum compounds which were prepared in saline (Quality Biological, Gaithersburg, MD, cat. 114-055-101), at 800-fold the tested concentration and stored at -70 degrees C prior to their use. All drugs and investigational agents were tested over a range starting from a high concentration at or near the clinical Cmax and decreasing in half-log increments. If the clinical Cmax for an agent had not been determined, the highest concentration tested was 10 microM (Table 1).
Cell Culture. All cells were maintained in an incubator at 37 degrees C and 5% CO2 with 95% humidity. The PDC lines were cultured according to standard operating procedures established by the NCI PDMR (https://pdmr.cancer.gov). Briefly, all PDCs were thawed and cultured in Matrigel-coated flasks prepared with a working solution of 1X Ham's F-12 nutrient mix, without supplementation (Invitrogen, Waltham, MA, cat. 11765054), 100 U/mL penicillin-streptomycin (Invitrogen, cat. 15140122), and 2.5% Matrigel (Corning Inc., Corning, NY, cat. 354248) for the first three passages. All PDCs were cultured in complete DMEM/F-12 media containing advanced DMEM/F-12 (Invitrogen, cat. 12634028), 4.9% defined fetal bovine serum, heat inactivated (HyClone Laboratories Inc., Logan, UT, cat. SH30070.03HI), 389 ng/mL hydrocortisone (Sigma-Aldrich, cat. H4001), 9.7 ng/mL human EGF recombinant protein (Invitrogen, cat. PHG0313), 23.4 microg/mL adenine (Sigma-Aldrich, cat. A2786), 97.3 U/mL penicillin-streptomycin (Invitrogen, cat. 15140122), 1.9 mM L-glutamine (Invitrogen, cat. 25030081), and 9.7 microM Y-27632 dihydrochloride (Tocris Bioscience, Bristol, United Kingdom, cat. 1254). The PDCs were cultured in complete DMEM/F12 media without 10 microM Y-27632 dihydrochloride for at least two passages prior to the screen. The established cell lines NCI-H1341 and […] were cultured in DMEM/F-12, HEPES (Invitrogen, cat. 11330032), 5% defined fetal bovine serum (HyClone Laboratories Inc., cat. SH30070.03), ITS premix universal culture supplement [insulin (5 microg/mL), transferrin (5 microg/mL), and selenious acid (5 ng/mL)] […]

[1] = second compound 0.1 µM, first compound 0.00316 µM
[2] = second compound 0.1 µM, first compound 0.01 µM
[3] = second compound 0.1 µM, first compound 0.0316 µM
[4] = second compound 0.1 µM, first compound 0.1 µM
[5] = second compound 0.316 µM, first compound 0.00316 µM
[6] = second compound 0.316 µM, first compound 0.01 µM
[7] = second compound 0.316 µM, first compound 0.0316 µM
[8] = second compound 0.316 µM, first compound 0.1 µM
[9] = second compound 1 µM, first compound 0.00316 µM
[10] = second compound 1 µM, first compound 0.01 µM
[11] = second compound 1 µM, first compound 0.0316 µM
[12] = second compound 1 µM, first compound 0.1 µM
[13] = second compound 3.16 µM, first compound 0.00316 µM
[14] = second compound 3.16 µM, first compound 0.01 µM
[15] = second compound 3.16 µM, first compound 0.0316 µM
[16] = second compound 3.16 µM, first compound 0.1 µM
[17] = second compound 10 µM, first compound 0.00316 µM
[18] = second compound 10 µM, first compound 0.01 µM
[19] = second compound 10 µM, first compound 0.0316 µM
[20] = second compound 10 µM, first compound 0.1 µM
[21] = second compound 0.1 µM, first compound 0.316 µM
[22] = second compound 0.1 µM, first compound 1 µM
[23] = second compound 0.1 µM, first compound 3.16 µM
[24] = second compound 0.1 µM, first compound 10 µM
[25] = second compound 0.316 µM, first compound 0.316 µM
[26] = second compound 0.316 µM, first compound 1 µM
[27] = second compound 0.316 µM, first compound 3.16 µM
[28] = second compound 0.316 µM, first compound 10 µM
[29] = second compound 1 µM, first compound 0.316 µM
[30] = second compound 1 µM, first compound 1 µM
[31] = second compound 1 µM, first compound 3.16 µM
[32] = second compound 1 µM, first compound 10 µM
[33] = second compound 3.16 µM, first compound 0.316 µM
[34] = second compound 3.16 µM, first compound 1 µM
[35] = second compound 3.16 µM, first compound 3.16 µM
[36] = second compound 3.16 µM, first compound 10 µM
[37] = second compound 10 µM, first compound 0.316 µM
[38] = second compound 10 µM, first compound 1 µM
[39] = second compound 10 µM, first compound 3.16 µM
[40] = second compound 10 µM, first compound 10 µM
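Also: spheroids exposed to compounds for seven days before the viability read.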
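For viability, T/C in this document: luminescent signal used as a stand-in for viable cell amount; 100% = DMSO vehicle control wells.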

IC50 (second compound 0.1 µM) [nM] | IC50 (second compound 0.316 µM) [nM] | IC50 (second compound 1 µM) [nM] | IC50 (second compound 3.16 µM) [nM] | IC50 (second compound 10 µM) [nM] | Compound | viability, T/C [3] [%] | viability, T/C [4] [%] | viability, T/C [7] [%] | viability, T/C [8] [%] | viability, T/C [11] [%] | viability, T/C [12] [%] | viability, T/C [15] [%] | viability, T/C [16] [%] | viability, T/C [19] [%] | viability, T/C [20] [%] | viability, T/C [21] [%] | viability, T/C [22] [%] | viability, T/C [25] [%] | viability, T/C [26] [%] | viability, T/C [29] [%] | also measured
14.1 | 14.5 | 15 | 11.3 | 12.7 | CC[C@@]1(O)C(=O)OCc2c1cc1n(c2=O)Cc2cc3c(CN(C)C)c(O)ccc3nc2-1 + CC(CO)NC(=O)c1cc(-c2ccc(Cl)cc2)nn(-c2cnn(C)c2)c1=O | 32.2 | 21.5 | 30.1 | 22.2 | 27.6 | 22 | 24.7 | 22.7 | 26.5 | 24.1 | – | – | – | – | – | viability, T/C (second compound 0.1 µM, first compound 0.000316 µM): 101%; viability, T/C (second compound 0.1 µM, first compound 0.001 µM): 101%; viability, T/C [1]: 89.5%; viability, T/C [2]: 57.3%; viability, T/C (second compound 0.316 µM, first compound 0.000316 µM): 96.5%; viability, T/C (second compound 0.316 µM, first compound 0.001 µM): 102%; viability, T/C [5]: 93.5%; viability, T/C [6]: 59.6%; viability, T/C (second compound 1 µM, first compound 0.000316 µM): 90.4%; viability, T/C (second compound 1 µM, first compound 0.001 µM): 102%; viability, T/C [9]: 91%; viability, T/C [10]: 62.2%; viability, T/C (second compound 3.16 µM, first compound 0.000316 µM): 88.3%; viability, T/C (second compound 3.16 µM, first compound 0.001 µM): 102%; viability, T/C [13]: 77.1%; viability, T/C [14]: 55.5%; viability, T/C (second compound 10 µM, first compound 0.000316 µM): 75%; viability, T/C (second compound 10 µM, first compound 0.001 µM): 75.4%; viability, T/C [17]: 78.3%; viability, T/C [18]: 56.2%
279 | 281 | 260 | 197 | 81.6 | COc1cc(C2c3cc4c(cc3C(OC3OC5COC(C)OC5C(O)C3O)C3COC(=O)C23)OCO4)cc(OC)c1O (stereo not given) + CC(CO)NC(=O)c1cc(-c2ccc(Cl)cc2)nn(-c2cnn(C)c2)c1=O | 102 | 83.9 | 92.8 | 90.6 | 89.2 | 80.2 | 84.5 | 71.6 | 68.3 | 47.4 | 45.4 | 20.3 | 45 | 17.8 | 42.6 | viability, T/C [23]: 15.5%; viability, T/C [24]: 8.93%; viability, T/C [27]: 17.6%; viability, T/C [28]: 8.41%; viability, T/C [30]: 20.7%; viability, T/C [31]: 16.4%; viability, T/C [32]: 8.47%; viability, T/C [33]: 33.7%; viability, T/C [34]: 20.2%; viability, T/C [35]: 14.5%; viability, T/C [36]: 7.04%; viability, T/C [37]: 25.2%; viability, T/C [38]: 19.2%; viability, T/C [39]: 10.4%; viability, T/C [40]: 6.47%
< 31.6 | < 31.6 | < 31.6 | < 31.6 | < 31.6 | COc1cccc2c1C(=O)c1c(O)c3c(c(O)c1C2=O)CC(O)(C(=O)CO)CC3OC1CC(N)C(O)C(C)O1 (stereo not given) + CC(CO)NC(=O)c1cc(-c2ccc(Cl)cc2)nn(-c2cnn(C)c2)c1=O | 39.3 | 28.8 | 38.3 | 27.1 | 37.9 | 29 | 33.9 | 27.5 | 28.2 | 24.3 | 7.36 | 0.1 | 7.61 | 0.08 | 8.06 | viability, T/C [23]: 0.08%; viability, T/C [24]: 0.32%; viability, T/C [27]: 0.06%; viability, T/C [28]: 0.6%; viability, T/C [30]: 0.09%; viability, T/C [31]: 0.37%; viability, T/C [32]: 0.22%; viability, T/C [33]: 7.26%; viability, T/C [34]: 0.08%; viability, T/C [35]: 0.09%; viability, T/C [36]: 0.64%; viability, T/C [37]: 4.49%; viability, T/C [38]: 0.2%; viability, T/C [39]: 0.17%; viability, T/C [40]: 0.32%
> 1000 | > 1000 | > 1000 | > 1000 | > 1000 | Nc1ncn(C2CC(O)C(CO)O2)c(=O)n1 (stereo not given) + CC(CO)NC(=O)c1cc(-c2ccc(Cl)cc2)nn(-c2cnn(C)c2)c1=O | 89.3 | 85.1 | 85.8 | 84.9 | 96.1 | 80.9 | 94.3 | 82.5 | 90.9 | 79 | 64.5 | 52.1 | 63.6 | 52.8 | 66.2 | viability, T/C [1]: 110%; viability, T/C [2]: 103%; viability, T/C [5]: 92%; viability, T/C [6]: 82.3%; viability, T/C [9]: 84.6%; viability, T/C [10]: 97.6%; viability, T/C [30]: 55.2%; viability, T/C [13]: 91.5%; viability, T/C [14]: 95.1%; viability, T/C [33]: 66.8%; viability, T/C [34]: 59.4%; viability, T/C [17]: 90.3%; viability, T/C [18]: 81.2%; viability, T/C [37]: 63.1%; viability, T/C [38]: 51.7%
